According to patent publication US8685962B2 (priority 2007, dated 2014):
Where two headings read alike, the source gives them in different places.

What was measured:
[1] = target: T1, TSPO receptors in SCC-15 cell line (Homo sapiens, UniProt P30536); experiment: Displacement of [3H]PK11195 from TSPO receptors in SCC-15 cells; assay type: binding
T1 construct: endogenous in cells; host or cells: SCC-15
Procedure: (§1) Cells were scraped from the culture dishes, washed with phosphate-buffered saline (PBS), and centrifuged at 1200 g for 10 minutes. Then the cell pellets were re-suspended in 1 mL of 50 mM phosphate buffer, pH 7.4, and centrifuged at 1200 g for 10 minutes. […] After incubation for 80 minutes at room temperature, samples were filtered under vacuum over Whatman GF/B filters and washed three times with phosphate buffer. Filters were placed in vials containing 4 mL of Opti-Fluor (Packard, Groningen, The Netherlands) and counted for radioactivity in a scintillation counter after 12 hours. The maximal number of binding sites (Bmax) and equilibrium dissociation constants were calculated from the saturation curve of [^3H]

human salivary TSPO = target: T2, human salivary TSPO (Homo sapiens, UniProt P30536); experiment: Competition of TSPO ligands with [3H]PK11195 binding in human saliva; conditions: for binding affinity lower than that of PK11195: relative to PK11195
T2 construct: from tissue; host or cells: cells pelleted from human saliva samples (volunteers; smokers and non-smokers)
Procedure: (§2) After 80 minutes of incubation at 4° C., the samples were filtered through Whatman CF/C filters using a vacuum system, washed three times with 4 ml of 5 mM ice-cold phosphate buffer and placed in vials containing 4 ml of Opti-Fluor. Radioactivity was counted after 12 hours with a liquid scintillation analyzer. Specific binding was obtained by subtracting non specific binding from total binding.

[2] = target: T3, TSPO receptors in SCC-25 cell line (Homo sapiens, UniProt P30536); experiment: Displacement of [3H]PK11195 from TSPO receptors in SCC-25 cells; assay type: binding; conditions: for potency in displacing [3H]PK11195, fold lower than PK11195: SCC-25 membrane, relative to PK11195
T3 construct: endogenous in cells; host or cells: SCC-25
Procedure: as §1

H1299 lung cancer cells = experiment: Survival of H1299 cells exposed to cigarette smoke with/without saliva; assay type: cell-based, human; conditions: for effect on survival of H1299 cells exposed to CS (in words): CS + 30% saliva
Procedure: Four control groups, not exposed to tobacco smoke (referred to herein as TS or alternatively, as CS, standing for “cigarette smoke”) were compared to four study groups (similar groups which were also exposed to CS), as detailed hereinafter. The four control groups included the following: a group where the cells were incubated in medium alone and exposed to air (M), a group where the cells were incubated in medium supplemented with whole saliva and exposed to air (M+saliva), a group where the cells where incubated in medium and exposed to CS (M+CS) and a group where the cells were incubated in medium supplemented with saliva and exposed to CS (M+saliva+CS).
During smoke exposure, the cells were put into a smoking sealed chamber (33.5 cm^3) with CS pressure of 0.3 Bar. Control cells were subjected to the same procedures, but exposed only to fresh air. Cells were exposed to CS for one “puff” every 20 minutes for a 2 hours (120 minutes) period (unless indicated otherwise). Cells exposed to air served as control. Cells were used when it becomes confluent and the medium (with/without saliva) volume was compatibly to the dish in use.
In order to examine the possible effect of TSPO receptor ligands on the survival rate of cells exposed to both CS and saliva, the benzodiazepine TSPO ligand, diazepam, was added to cells prior to exposing the cells to CS+30% saliva.

TSPO receptor in saliva [3] = target: T4, TSPO receptor in saliva (Homo sapiens, UniProt P30536); experiment: [3H]PK11195 binding in saliva from heavy smokers and non-smokers; conditions: for mean TSPO binding: 6 nM ligand
T4 construct: from tissue; host or cells: cells pelleted from human saliva samples (volunteers; smokers and non-smokers)
Procedure: as §2
The effect of long term CS-exposure on the salivary TSPO, of heavy smokers, was investigated. Saliva samples were collected from heavy smokers (smokers group) and from a control group of non-smoking volunteers (control group), and the total protein expression level as well as TSPO binding capacity was evaluated as follows.
The mean TSPO binding was calculated and found to be 53% lower in the smokers group, as compared to the control group (694±264; n=9 and 1,480±1,157; n=16, respectively; see, FIG. 7b). This statistically significant reduction (p<0.05) further supports the results obtained for the in-vitro exposure of saliva cells to CS (detailed above), and point to a CS-related reduced TSPO receptor binding capacity.

[4] = target: T5, TSPO receptors in H1299 lung cancer cells (Homo sapiens, UniProt P30536); experiment: [3H]PK11195 saturation binding (Scatchard) in H1299 cells
T5 construct: Cells were scraped from the culture dishes, washed with phosphate-buffered saline (PBS), and centrifuged; endogenous in cells; host or cells: H1299
Procedure: as §1

[5] = target: T6, TSPO receptors in human tongue cancer cell line SCC-25 (Homo sapiens, UniProt P30536); experiment: [3H]PK11195 saturation binding (Scatchard) in SCC-25 cells
T6 construct: Cells were scraped from the culture dishes, washed with phosphate-buffered saline (PBS), and centrifuged; endogenous in cells; host or cells: SCC-25
Procedure: as §1

TSPO receptor in saliva [6] = target: T4, TSPO receptor in saliva; experiment: [3H]PK11195 saturation binding with Scatchard analysis in human saliva; conditions: n=10
Procedure: as §2

[7] = target: T7, TSPO receptors in human tongue cancer cell line SCC-15 (Homo sapiens, UniProt P30536); experiment: [3H]PK11195 saturation binding (Scatchard) in SCC-15 cells
T7 construct: endogenous in cells; host or cells: SCC-15
Procedure: as §1

[8] = 50% inhibition of [3H]PK11195 binding, SCC-15, read-out: IC50
[9] = inhibition of [3H]PK11195 binding, human saliva, four independent experiments, read-out: Ki
[10] = 50% inhibition of [3H]PK11195 binding, SCC-25, read-out: IC50
[11] = 10^-8 M, medium + 30% saliva, CS 120 minutes

T4 sequence (P30536 whole entry): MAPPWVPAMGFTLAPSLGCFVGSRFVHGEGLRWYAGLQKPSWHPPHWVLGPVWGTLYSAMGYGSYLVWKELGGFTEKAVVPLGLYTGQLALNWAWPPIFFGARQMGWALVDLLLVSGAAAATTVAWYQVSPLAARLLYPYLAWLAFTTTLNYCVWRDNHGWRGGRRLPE
T2 sequence (P30536 whole entry): as above
T1 sequence (P30536 whole entry): as above
T3 sequence (P30536 whole entry): as above
T6 sequence (P30536 whole entry): as above
T7 sequence (P30536 whole entry): as above
T5 sequence (P30536 whole entry): as above

## CN1C(=O)CN=C(c2ccc(Cl)cc2)c2cc(Cl)ccc21 [Ro5-4864, 4-chlorodiazepam]
[1]; [8]
  IC50: 2.07 ± 1.55 µM
Human salivary TSPO; human saliva
  binding affinity lower than that of PK11195: two orders of magnitude
Human salivary TSPO; [9]
  Ki: 0.5 µM
[2]; [10]
  IC50: 0.666 ± 0.036 µM
[2]
  potency in displacing [3H]PK11195, fold lower than PK11195: 74 times

## O=C1CN=C(c2ccccc2Cl)c2cc([N+](=O)[O-])ccc2N1 [Clonazepam]
H1299 lung cancer cells; 10^-7 M
  effect on survival of H1299 cells exposed to CS (in words): No significant increase in survival levels
H1299 lung cancer cells; 10^-7 M, listed as clonazepam
  effect on survival of H1299 cells exposed to CS (in words): not significantly altered
H1299 lung cancer cells; 10^-8 M
  effect on survival of H1299 cells exposed to CS (in words): did not increase the survival level
H1299 lung cancer cells; [11]
  decrease of cells survival: 10.65%
Human salivary TSPO; human saliva
  affinity to TSPO (in words): negligible affinity
[2]; SCC-25
  affinity for TSPO (in words): negligible affinity

## CCC(C)N(C)C(=O)c1cc2ccccc2c(-c2ccccc2Cl)n1 (stereo not shown) [[^3H]PK11195]
TSPO receptor in saliva [3]; control group (non-smokers), n=16
  mean TSPO binding: 1,480±1,157
TSPO receptor in saliva [3]; smokers group, n=9
  mean TSPO binding: 694±264
TSPO receptor in saliva [3]; smokers vs control group
  mean TSPO binding lower in smokers than control group: 53%
[4]
  maximum amount of specifically bound ligand (Bmax): 3274±787 pmol/mg of protein
[5]
  Bmax (maximal binding capacity): 3133±643 fmoles/mg protein
  non-specific binding as part of total binding: a third
TSPO receptor in saliva [6]
  Bmax (maximal binding capacity): 6,471±1,584 fmol/mg protein
[7]
  Bmax: 6956±5492 fmoles/mg protein
  non-specific binding as part of total binding: 25±3.2%

## CN1C(=O)CN=C(c2ccccc2)c2cc(Cl)ccc21 [Diazepam]
H1299 lung cancer cells; 10^-7 M
  effect on survival of H1299 cells exposed to CS (in words): significantly increased
H1299 lung cancer cells; 10^-7 M, medium + 30% saliva, CS 120 minutes
  increase of cell survival: 16%
H1299 lung cancer cells; 10^-8 M
  effect on survival of H1299 cells exposed to CS (in words): significantly increased
H1299 lung cancer cells; [11]
  increase of cell survival: 17.4%
[1]
  IC50: 14.1 ± 15.2 µM
Human salivary TSPO
  Ki: 4.5 µM
Human salivary TSPO; human saliva
  binding affinity lower than that of PK11195: three orders of magnitude
[2]
  IC50: 14.2 ± 5.72 µM
  potency in displacing [3H]PK11195, fold lower than PK11195: 1580 times

## CCCCCCN(CCCCCC)C(=O)Cc1c(-c2ccc(F)cc2)[nH]c2ccccc12 [FGIN-1-27]
[1]; [8]
  IC50: 0.164 µM
Human salivary TSPO; human saliva
  binding affinity lower than that of PK11195: two orders of magnitude
Human salivary TSPO; [9]
  Ki: 0.15 µM
[2]; [10]
  IC50: 0.152 ± 0.019 µM
[2]
  potency in displacing [3H]PK11195, fold lower than PK11195: 17 times
